Results reported in patent publication US11498909B2, “Compound acting as antibiotics” (KBP BIOSCIENCES CO., LTD., priority 2018, dated 2022).
Values after ≈ are worked out from the molar mass of the structure shown. Read-outs that look alike come from different tables or passages of the source.

Tests used:
[1] = Pharmacokinetics (PK) determination in SD rats (Experiment 4); assay type: in vivo; details: plasma; for Cl_obs / Vz_obs / t1/2z / λ_z: IV 2 mg/kg; for AUC(0-t) / AUC(0-inf): Sprague-Dawley (SD), rat, iv; for AUC(0-inf): read-out: AUCINF_obs
Method: The compound of the present invention, self-prepared and dissolved in a suitable solvent.
Instrument and equipment: API4000 LC-MS/MS
Chromatographic column: Waters XBridge C18(2.1×50 mm, […])
Rat blood collection: Animals were fixed. The animal's tail was heated with a water bathtub 10 minutes before each time point. About 200 μL of the blood was collected through the caudal vein. After the blood collection, the blood was placed in an anticoagulation tube containing heparin sodium. The blood samples were centrifuged at 8000 rpm for 6 minutes at 4° C. to obtain plasma samples. The plasma must be prepared within 30 minutes after the blood collection. The plasma was stored in a refrigerator at −80° C. before the test.
(1) Test samples were removed from the refrigerator (−80° C.), naturally thawed at room temperature, and then vortexed for 5 minutes;
(2) 20 μL sample was precisely pipetted to a 1.5 mL centrifuge tube;
(3) 200 μL of the internal standard solution was added;
(4) The mixture was vortexed for 5 minutes and centrifuged for 5 minutes (12000 revolutions per minute);
(5) 100 μL of the supernate was precisely pipetted, 100 μL of water was added, the mixture was vortexed for 5 minutes, and the sample was sent to LC-MS/MS for analysis.
The results of the concentrations of the test samples (plasma samples) were output with Analyst 1.6.1 of AB Corporation. The meaning value, the standard deviation, the coefficient of variation, and other parameters (not necessary to calculate the parameter that can be directly output from Analyst 1.6.1) were calculated with Microsoft Excel, and the PK parameter is calculated with Pharsight Phoenix 6.1 software.

Escherichia coli = assay: In vitro antibacterial activity, agar dilution MIC (Experiment 1); assay type: cell-based
Method: (§1) Tested strains: all the clinically separated strains below were purchased from public facilities.
(§2) Escherichia coli ATCC25922, Pseudomonas aeruginosa ATCC27853, Klebsiella pneumoniae ATCC700603, and the like.
(§3) Tested Samples: Imipenem, Ceftazidime: Commercial Products, the Following Experiments were Carried Out According to the Content of an Effective Ingredient in Each Commercial Product;
(§4) The compounds of the present invention, their chemical names, and preparation methods are shown in the preparation example of each compound.
(§5) Experiment method: Agar dilution method, refer to National Committee for Clinical Laboratory Standards. 2006. Methods for Dilution Antimicrobial Susceptibility Tests for Bacteria That Grow Aerobically; Approved Standard—Seventh Edition M7-A7, Vol 26, No. 2, 2006, to determine the MIC of the compound. MIC represents the minimum inhibitory concentration.

Klebsiella pneumoniae = assay: as above; assay type: cell-based
Method: as §1, §2, §3, §4, §5

Pseudomonas aeruginosa [2] = assay: as above; assay type: cell-based
Method: as §1, §2, §3, §4, §5

Pseudomonas aeruginosa [3] = assay: In vitro antibacterial activity against Pseudomonas aeruginosa, agar dilution MIC (Experiment 3); assay type: cell-based; details: CLSI 2018 (Table 5)
Method: Tested samples: the compound of the present invention, prepared according to the preparation example method; Compound C, prepared with reference to WO2008154642A2.
With reference to the steps of the agar dilution method in the 2018 USA Clinical and Laboratory Standards Institute (CLSI), the determination of the minimum inhibitory concentration (MIC) of the compounds against the strain(s) was carried out.
Preparation of drug-containing plate: (1) a drug solution with the highest concentration was prepared, and the highest concentration of each compound was 160 μg/mL. (2) For each compound, the drug solution with the highest concentration was subjected to the double dilution, and a total of 10 concentration gradients was obtained; for each of dilution gradient, 2 mL of the drug solution was added to 18 mL MH agar solution which had been autoclaved at 121° C. and cooled to about 50° C.; the mixture was uniformly mixed, left stand and cooled to give a drug-containing plate; and the plate was labeled. The final concentrations of the compound were respectively 16, 8, 4, 2, 1, 0.5, 0.25, 0.125, 0.06 and 0.03 μg/mL.
Inoculum preparation and inoculation: A fresh single colony was selected, diluted with 0.9% sodium chloride injection, adjusted to 0.5 #McFarland turbidity, and then diluted 10 times with 0.9% sodium chloride injection, then inoculated with an automatic multi-point inoculation instrument to the labeled drug-containing plate.

[4] = tested on: polymyxin-resistant mcr-1 positive Enterobacteriaceae; assay: In vitro antibacterial effect on polymyxin-resistant mcr-1 positive Enterobacteriaceae, agar dilution MIC (Experiment 2); assay type: cell-based, Escherichia coli
Method: Tested samples: the compounds of the present invention, prepared according to the methods of the preparation examples;
Polymyxin E sulphate, Ampicillin, Cefotaxime, Gentamicin, Ciprofloxacin, Tetracycline, and Bactrim were all commercial products, the following experiments were carried out according to the content of an effective ingredient in each commercial product.
Tested strains: Escherichia coli carrying mcr-1 gene isolated from animals and Escherichia coli ATCC25922, a quality control strain, were provided by South China Agricultural University.
With reference to the agar dilution method in CLSI, the MIC value of the tested drugs to the polymyxin resistant mcr-1 positive Escherichia coli were determined.
Preparation of drug-containing agar plates: a drug solution with the highest concentration was prepared for each compound; the drug solution with the highest concentration was subjected to the double dilution; for each of dilution gradient, 1 mL (20×drug working solution) of the drug solution was added to 19 mL MH agar at 45-50° C.; immediately after addition, the agar and the drug solution were uniformly mixed to give a drug-containing agar plate with final concentrations of […], and the plate was solidified for later use; and in the meanwhile, a growth control group was arranged.
Inoculum preparation and culture: the strains stored at −80° C. were rejuvenated and formulated with broth so that the turbidity reached or exceeded 0.5 #McFarland unit; a 96-well plate was used as the inoculation tank, and the bacterial solution was diluted with sodium chloride injection so that the content of bacteria inoculated on the agar was 10^4 CFU/point. A multi-point inoculation instrument was used to inoculate the bacterial solution to the surface of the labeled drug-containing agar. After the water in the inoculation point was completely absorbed by the agar, the plate was placed upside down in a 37° C. constant-temperature incubator and incubated for 16-20 hours.

[5] = agar dilution (Table 3), read-out: MIC50
[6] = agar dilution (Table 3), read-out: MIC90

| Compound | AUC(0-t) ([1]; 2 mg/kg) | AUC(0-inf) ([1]; 2 mg/kg) | MIC50 (Escherichia coli) | MIC90 (Escherichia coli) | MIC50 (Klebsiella pneumoniae; agar dilution, read-out: MIC50) | MIC90 (Klebsiella pneumoniae; agar dilution, read-out: MIC90) | MIC50 (Pseudomonas aeruginosa [2]; [5]) | MIC90 (Pseudomonas aeruginosa [2]; [6]) | MIC50 (Pseudomonas aeruginosa [3]) | MIC90 (Pseudomonas aeruginosa [3]; read-out: MIC90) | Cl_obs [1] | Vz_obs [1] | t1/2z [1] | λ_z [1] | other results |
| --- | --- | --- | --- | --- | --- | --- | --- | --- | --- | --- | --- | --- | --- | --- | --- |
| CC(O)[C@H](NC(=O)c1ccc(C#CC#Cc2ccc(CO)o2)cc1)C(=O)NO (stereo in doubt) [Compound 6, N-((2S,3R)-3-hydroxy-1-(hydroxyamino)-1-oxobutan-2-yl)-4-((5-(hydroxymethyl)furan-2-yl)buta-1,3-diynyl)benzamide] | 4000 ± 442 ng·h/mL | 4010 ± 443 ng·h/mL | 0.125 µg/mL (≈ 0.327 µM) | 0.125 µg/mL (≈ 0.327 µM) | 1 µg/mL (≈ 2.62 µM) | 1 µg/mL (≈ 2.62 µM) | 0.25 µg/mL (≈ 0.654 µM) | 1 µg/mL (≈ 2.62 µM) | 0.5 µg/mL (≈ 1.31 µM) | 1 µg/mL (≈ 2.62 µM) | – | – | – | – | Cl_obs ([1]; 2 mg/kg): 8.33 ± 1 mL/min/kg; Vz_obs ([1]; 2 mg/kg): 0.46 ± 0.14 L/kg; t1/2z ([1]; 2 mg/kg): 37.2 ± 7.2 min; λ_z ([1]; 2 mg/kg): 1.14 ± 0.21 h⁻¹; MIC90 ([4]; Escherichia coli, read-out: MIC90 Value, polymyxin-resistant mcr-1 positive Escherichia coli, agar dilution): 1 µg/mL (≈ 2.62 µM); MIC90 Value ([4]; polymyxin-resistant mcr-1 positive Escherichia coli, agar dilution): 0.5 µg/mL (≈ 1.31 µM) |
| C[C@@H](O)[C@H](NC(=O)c1ccc(C#CC#Cc2ccc(CO)n2C)cc1)C(=O)NO [Compound 33, N-((2S,3R)-3-hydroxy-1-(hydroxamino)-1-oxobutan-2-yl)-4-((5-(hydroxymethyl)-1-methyl-1H-pyrrol-2-yl)buta-1,3-diynyl)benzamide] | 666 ± 318 ng·h/mL | 671 ± 315 ng·h/mL | 0.125 µg/mL (≈ 0.316 µM) | 0.125 µg/mL (≈ 0.316 µM) | – | – | – | – | – | – | 56.5 ± 22.3 mL/min/kg | 1.21 ± 0.34 L/kg | 15.6 ± 2.4 min | 2.75 ± 0.50 h⁻¹ | MIC50 (Klebsiella pneumoniae): 0.5 µg/mL (≈ 1.26 µM); MIC90 (Klebsiella pneumoniae): 1 µg/mL (≈ 2.53 µM); MIC50 (Pseudomonas aeruginosa [2]): 1 µg/mL (≈ 2.53 µM); MIC90 (Pseudomonas aeruginosa [2]): 8 µg/mL (≈ 20.2 µM) |
| C[C@@H](O)[C@H](NC(=O)c1ccc(C#CC#Cc2ccc(CO)s2)cc1)C(=O)NO [Compound 41, N-((2S,3R)-3-hydroxy-1-(hydroxyamino)-1-oxobutan-2-yl)-4-((5-(hydroxymethyl)thienyl-2-yl)buta-1,3-diynyl)benzamide] | 1590 ± 447 ng·h/mL | 1590 ± 446 ng·h/mL | – | – | 0.125 µg/mL (≈ 0.314 µM) | 0.25 µg/mL (≈ 0.627 µM) | 0.25 µg/mL (≈ 0.627 µM) | 1 µg/mL (≈ 2.51 µM) | – | – | 22 ± 5.5 mL/min/kg | 0.61 ± 0.20 L/kg | 19.2 ± 2.4 min | 2.21 ± 0.29 h⁻¹ | MIC50 (Escherichia coli; agar dilution, read-out: MIC50): ≤ 0.03 µg/mL; MIC90 (Escherichia coli; agar dilution, read-out: MIC90): 0.06 µg/mL (≈ 0.151 µM) |
| C[C@@H](O)[C@H](NC(=O)c1ccc(C#CC#Cc2ccc(CO)cc2)cc1)C(=O)NO [Compound C] | – | – | – | – | – | – | – | – | 4 µg/mL (≈ 10.2 µM) | > 16 µg/mL | – | – | – | – | MIC90 (Pseudomonas aeruginosa [3]): >16 µg/mL |
